Source: ChEMBL document CHEMBL1126997, “Synthesis and antibacterial activity of two catechol-bearing penems” (1993)

Key:
Format in all cases: functional
Proteus mirabilis = assay: Compound was tested in vitro for antimicrobial activity against Proteus mirabilis 977
Pseudomonas aeruginosa [1] = assay: Compound was tested in vitro for antimicrobial activity against Pseudomonas aeruginosa Dagleish: beta-lactamase producer
Escherichia coli [2] = assay: Compound was tested in vitro for antimicrobial activity against Escherichia coli DC0
Providencia stuartii = assay: Compound was tested in vitro for antimicrobial activity against Providencia stuartii T90
Pseudomonas aeruginosa [3] = assay: Compound was tested in vitro for antimicrobial activity against Pseudomonas aeruginosa NCTC 10662
Pseudomonas aeruginosa [4] = assay: Compound was tested in vitro for antimicrobial activity against Pseudomonas aeruginosa K799
Escherichia coli [5] = assay: Compound was tested in vitro for antimicrobial activity against Escherichia coli NCTC 10418
Escherichia coli [6] = assay: Compound was tested in vitro for antimicrobial activity against Escherichia coli DC2: cell wall deficient mutant strain

| Compound | MIC (Proteus mirabilis) [µg/mL] | MIC (Pseudomonas aeruginosa [1]) [µg/mL] | MIC (Escherichia coli [2]) [µg/mL] | MIC (Providencia stuartii) [µg/mL] | MIC (Pseudomonas aeruginosa [3]) [µg/mL] | MIC (Pseudomonas aeruginosa [4]) [µg/mL] | MIC (Escherichia coli [5]) [µg/mL] | MIC (Escherichia coli [6]) [µg/mL] |
| --- | --- | --- | --- | --- | --- | --- | --- | --- |
| C[C@@H](O)[C@H]1C(=O)N2C(C(=O)[O-])=C(CO)S[C@H]12.[Na+] | 16 | 64 | 8 | 16 | 64 | 64 | 8 | 8 |
| C[C@@H](O)[C@H]1C(=O)N2C(C(=O)[O-])=C(COC(=O)c3ccc(O)c(O)c3)S[C@H]12.[Na+] | 32 | > 64 | 1 | 32 | 32 | > 64 | 0.5 | 0.12 |
| CC(=O)Oc1cccc(C(=O)OCC2=C(C(=O)[O-])N3C(=O)C[C@H]3S2)c1OC(C)=O.[Na+] | 16 | > 32 | > 32 | > 32 | 8 | > 32 | 8 | 0.5 |
| O=C([O-])C1=C(CO)S[C@@H]2CC(=O)N12.[Na+] | 32 | > 64 | 32 | 32 | > 64 | > 64 | 16 | 32 |
